Data set [1] deals with T1, H3R (Rattus norvegicus, UniProt Q9QYN8).
T1 construct: from tissue; host or cells: brain of living Sprague-Dawley rats
In words: PET imaging of rat brains. The class given is in vivo. The settings on record: for cerebellar SUV at 15 min after radioligand injection: mean ± S.D. How it is done:
Six-week-old male Sprague-Dawley rats were purchased from Japan SLC (Shizuoka, Japan). PET scans were performed using a microPET Focus 220 small-animal scanner (Siemens Medical Solutions USA, Knoxville, TN). The rats were anesthetized with 1.5–2 % isoflurane during the imaging session, while their heart rate and blood oxygen saturation were monitored by pulse oximeter (CANL-425SVA; Med Associates, St. Albans, VT). Body temperature was kept at 37 °C with a heating pad (BWT-100; Bio Research Center, Aichi, Japan). Following the transmission scans for attenuation correction using a ^68Ge-^68Ga point source, emission scans were performed for 90 min in 3D list-mode with an energy window of 350–750 keV, immediately after the intravenous injection of each radioligand. Mean ± S.D. of the injected radioactivity of [^11C]TASP0410457, [^11C]TASP0434988, and [^11C]TASP0390136 was 119 ± 26 MBq, 132 ± 34 MBq, and 124 ± 17 MBq, respectively (n = 3–5). Mean ± S.D. of the mass doses of [^11C]TASP0410457, [^11C]TASP0434988, and [^11C]TASP0390136 was 2.4 ± 1.2 μg/kg, 1.9 ± 0.4 μg/kg, and 4.2 ± 1.6 μg/kg, respectively (n = 3–5).
To assess the specificity of radioligand binding, thioperamide was injected intravenously at a dose of 10 mg/kg at 30 s before the injection of each radioligand.
All list-mode data were sorted into 3D sinograms, which were then Fourier rebinned into 2D sinograms (frames: 1 min × 4, 2 min × 8 and 5 min × 14). Images were reconstructed using 2D-filtered back-projection with a 0.5-mm Hanning filter.
PET image and magnetic resonance imaging (MRI) template were co-registered using PMOD software (PMOD version 3.206; Zurich, Switzerland) according to the following procedure as in our previous works: Outline of the whole brain and positions of eyes in PET images at an early phase of the scan were initially matched to those in MRI images, and then further translations and rotations of PET images were manually performed for fine alignments. Finally, parameters for the co-registration were applied to the entire dynamic PET data. Regions of interest (ROIs) were placed on the striatum, hippocampus, and cerebellum using PMOD software with reference to the MRI template as described elsewhere. The tissue time-activity curves (TACs) for these ROIs were generated by calculating the SUV for each time frame as follows: SUV=radioactivityBq/g×bodyweightg/injectedradiotracerdoseBq
The binding potentials relative to the non-displaceable uptake (BPND) in the striatum and hippocampus were estimated using the simplified reference tissue model (SRTM) with PMOD software using the cerebellum as a reference region, as the rat cerebellum is devoid of H3R [26].

For data set [2], the target named is T2, rat H3R (Rattus norvegicus, UniProt Q9QYN8).
T2 construct: Rat cerebral cortex and monkey frontal cortex were dissected; from tissue; host or cells: rat cerebral cortex membranes
T2 sequence (Q9QYN8 whole entry): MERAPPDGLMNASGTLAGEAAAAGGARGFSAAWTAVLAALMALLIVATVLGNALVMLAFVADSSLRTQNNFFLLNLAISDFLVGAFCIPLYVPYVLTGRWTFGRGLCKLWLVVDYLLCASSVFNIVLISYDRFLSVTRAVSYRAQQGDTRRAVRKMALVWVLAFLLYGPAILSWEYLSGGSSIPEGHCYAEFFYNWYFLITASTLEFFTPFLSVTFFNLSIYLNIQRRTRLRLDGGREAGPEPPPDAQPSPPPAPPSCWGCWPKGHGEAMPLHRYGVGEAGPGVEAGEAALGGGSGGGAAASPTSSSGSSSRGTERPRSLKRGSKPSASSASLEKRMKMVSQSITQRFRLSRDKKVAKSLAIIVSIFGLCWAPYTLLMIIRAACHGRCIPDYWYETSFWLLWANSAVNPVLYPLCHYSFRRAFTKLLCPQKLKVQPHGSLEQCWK
Kind of data set: In vitro binding to H3Rs, rat cerebral cortex membranes, [^3H]N-α-methylhistamine. The settings on record: 1 nM [^3H]N-α-methylhistamine, geometric mean, n = 3, read-out: Affinity for H3Rs Rat, IC50. How it is done: Rat cerebral cortex and monkey frontal cortex were dissected, homogenized with 50 mM Tris buffer (pH 7.4) containing 5 mM EDTA and Protease Inhibitor Cocktail Tablets (Roche Diagnostics, Indianapolis, IN) and centrifuged at 48,000×g for 15 min at 4 °C. The pellets were then suspended in binding buffer (50 mM Tris containing 5 mM EDTA, pH 7.4) and stored at −80 °C as membrane preparations.
The membrane preparations were thawed and incubated in the binding buffer containing 0.1 % bovine serum albumin, 1 nM [^3H]N-α-methylhistamine (PerkinElmer, Waltham, MA) with various concentrations of a dihydroquinolinone derivative (i.e., test compound) at 25 °C for 1 h. The reaction was terminated by rapid filtration through 96-well GF/C filter plates (PerkinElmer) presoaked with 0.5 % polyethyleneimine (Wako, Osaka, Japan). After washes with ice-cold binding buffer, the plates were dried and filled with Microscint-o (PerkinElmer). The radioactivity retained on the filters was counted using a TopCount NXT (PerkinElmer). Total and nonspecific radioligand binding was determined by reaction without and with 10 μM thioperamide and clobenpropit, respectively. The specific radioligand binding was then calculated by subtracting the nonspecific binding from the total binding. The IC50 value for inhibition of the radioligand binding by the test compound was determined using a nonlinear fit of the concentration-response curve for each test compound using SAS 9.2 (SAS Institute Inc., Cary, NC). Data were expressed as the geometric means of IC50 values from three independent experiments run in duplicate.

Data set [3] in a line: Ex vivo pharmacokinetic assessment in the rat brain using LC-MS/MS. As to conditions: 10 μg/kg intravenous, n = 3. How it is done:
The rats were decapitated at 5, 15, 30, 60, and 120 min after intravenous administration of TASP0390136, TASP0390174, TASP0410426, TASP0410427, TASP0410457, or TASP0434988 at a dose of 10 μg/kg. The cerebellum and forebrain, including the medial prefrontal and cingulate cortices and anterior striatum, were dissected and homogenized with four volumes of distilled water. The homogenates were protein-precipitated with methanol/acetonitrile (1:9) and were centrifuged at 3974×g for 10 min at 4 °C. The resultant supernatants were injected into an HPLC (Shimadzu-20AD, Shimadzu, Kyoto, Japan) and a tandem mass spectrometer (API4000, AB SCIEX, Framingham, MA) using a Shim-pak XR-ODS column (3.0 × 30 mm, Shimadzu) at 50 °C. TASP0410457 was eluted with a mobile phase consisting of 10 mM of ammonium acetate/acetonitrile with a linear gradient at a flow rate of 1.3 mL/min, and ammonium formate instead of ammonium acetate was used for eluting the other five compounds. […] The eluted TASP0390136, TASP0390174, TASP0410426, TASP0410427, TASP0410457, and TASP0434988 were ionized using an electrospray interface and were detected using reaction monitoring of the transitions of m/z 395 to 91, 395 to 98, 413 to 98, 425 to 98, 408 to 138, and 407 to 138, respectively. A dihydroquinolinone compound (6-[(1-cyclobutylpiperidin-4-yl)oxy]-1-(3,5-difluorophenyl)-3,4-dihydroquinolin-2(1H)-one) was used as an internal standard for all assays. The lower qualification limit for TASP0410457 was 0.05 ng/g tissue, and the limit for the other five compounds was 0.15 ng/g tissue. Data were expressed as standardized uptake values (SUVs) calculated as follows: SUV=tissueconcentrationg/g×bodyweightg/injecteddoseg

Data set [4] is described as follows: Radiochemical stability in the final formulation. Format: physicochemical. The settings on record: at 40 min after the end of radiosynthesis. How it is done:
[^11C]TASP0390136, [^11C]TASP0410457, and [^11C]TASP0434988 were synthesized as shown in Fig. 1a–c (detailed procedures are described in Additional file 1: Supplemental methods) using a homemade automated synthesis system. The radiochemical purities and specific activities of the radioligands, which were analyzed as described in Additional file 1: Supplemental Methods, along with their radiochemical yields and average synthesis times, are summarized in Table 1. Analytical HPLC chromatogram of each radioligand is shown in Additional file 2-4: Figures S1-S3. The radiochemical stabilities of [^11C]TASP0410457 and [^11C]TASP0434988 in the final formulation were >99 % at 1 h and 40 min, respectively, after the end of radiosynthesis.

Data set [5] concerns central H3Rs. Kind of data set: Receptor occupancy assay, [^11C]TASP0410457-PET, Lassen's plot. Format: in vivo, monkey. How it is done:
Occupancy of central H3Rs by ciproxifan, a selective antagonist/inverse agonist, was quantified by [^11C]TASP0410457-PET scans of an anesthetized monkey with arterial blood sampling. […] Receptor occupancy of ciproxifan was determined using Lassen’s plot without any reference regions using the following equation: VT^Baseline−VT^Ciproxifan=OccVT^Baseline−VND where VT^Baseline and VT^Ciproxifan are the regional VT values at baseline and in the ciproxifan challenge, respectively, VND is the non-displaceable distribution volume, and Occ is the occupancy.

The mark [6] stands for this setting: thioperamide predosing 10 mg/kg.
Where [7] appears, read: SRTM, cerebellum as reference region.

Consider 6 compounds from PMC4747952, “Development of TASP0410457 (TASP457), a novel dihydroquinolinone derivative as a PET radioligand for central histamine H3 receptors” (EJNMMI Research, 2016).

pIC50: −log10 of the molar value.

T1 sequence (Q9QYN8 whole entry): as above

For the compound `C[C@@H]1CCCN1CCCOc1ccc2c(c1)CCC(=O)N2c1ccc(O[11CH3])cc1` [[^11C]TASP0390136], the “cerebellar SUV at 15 min after radioligand injection” value in data set [1] (baseline) turned out to be 0.33 ± 0.01; in data set [1] (setting [6]) it was 0.30 ± 0.03.
What is called pIC50 is −log10 of the IC50, conventionally taken in molar units. Consider `COc1ccc(N2C(=O)CCc3cc(OCCCN4CCC[C@H]4C)ccc32)c(OC)c1` [TASP0410427, 1-(2,4-dimethoxyphenyl)-6-{3-[(2R)-2-methylpyrrolidin-1-yl]propoxy}-3,4-dihydroquinolin-2(1H)-one], for which, in data set [2], the pIC50 was above 8.52. Moreover, the “Mean peak concentration in the forebrain expressed as SUV” value (shortened to “Mean peak concentration”) in data set [3] was determined as 0.10 SUV.
As to `COc1cccc(N2C(=O)CCc3cc(OCCCN4CCC[C@H]4C)ccc32)c1` [TASP0390174, 1-(3-methoxyphenyl)-6-{3-[(2R)-2-methylpyrrolidin-1-yl]propoxy}-3,4-dihydroquinolin-2(1H)-one], in data set [2], the pIC50 is above 8.52. In addition, in data set [3], the “Mean peak concentration” value is 0.28 SUV.
Turning to `[11CH3]Oc1ccc(N2C(=O)CCc3cc(OC4CCN(C5CCC5)CC4)ccc32)cc1` [[^11C]TASP0434988], the “radiochemical stability in the final formulation” value in data set [4] was above 99%. Further, the “striatal and hippocampal peak SUVs lower than those for [^11C]TASP0410457” value in data set [1] is on record as 20–25%. Besides, the “BPND, Hippocampus” value in data set [1] (setting [7]) was 0.36 ± 0.11. Also, the “BPND, Striatum” value in data set [1] (setting [7]) is reported as 0.92 ± 0.21. The “cerebellar SUV at 15 min after radioligand injection” value was 0.64 ± 0.04 in data set [1] (baseline) and 0.59 ± 0.02 in data set [1] (setting [6]). Besides, the “time for specific binding to reach a pseudo-equilibrium state” value in data set [1] (target-to-reference ratios, after intravenous injection) is at most 15 min.
Turning to `O=C(c1ccc(OCCCc2cnc[nH]2)cc1)C1CC1` [ciproxifan, reference compound], the receptor occupancy in data set [5] (3 mg/kg intravenously, 10 min before [^11C]TASP0410457, anesthetized monkey, Lassen's plot) is recorded as ~ 75%. Also, the “adverse effects preventing completion of PET imaging” value in data set [5] (10 mg/kg, monkey, anesthetized with isoflurane) is “profound effects on heart rates and body motions”.
Turning to `COc1cc(F)cc(N2C(=O)CCc3cc(OCCCN4CCC[C@H]4C)ccc32)c1` [TASP0410426, 1-(3-fluoro-5-methoxyphenyl)-6-{3-[(2R)-2-methylpyrrolidin-1-yl]propoxy}-3,4-dihydroquinolin-2(1H)-one], the pIC50 in data set [2] is above 8.52. Further, the “Mean peak concentration” value in data set [3] came out at 0.30 SUV.
